{"source": "patent US5695952A", "about": "“Method for producing [Leu^13 ]motilin” (Kyowa Hakko Kogyo Co., Ltd., priority 1986, dated 1997)", "origin": "cited, not measured here", "conditions": "M. Fujino et al., Chem. Pharm. Bull., 26, 101 (1978)", "data": [{"smiles": "CC[C@H](C)[C@H](NC(=O)[C@@H]1CCCN1C(=O)[C@@H](NC(=O)[C@@H](N)Cc1ccccc1)C(C)C)C(=O)N[C@@H](Cc1ccccc1)C(=O)N[C@H](C(=O)N[C@@H](Cc1ccc(O)cc1)C(=O)NCC(=O)N[C@@H](CCC(=O)O)C(=O)N[C@@H](CC(C)C)C(=O)N[C@@H](CCC(N)=O)C(=O)N[C@@H](CCCNC(=N)N)C(=O)N[C@@H](CCSC)C(=O)N[C@@H](CCC(N)=O)C(=O)N[C@@H](CCC(=O)O)C(=O)N[C@@H](CCCCN)C(=O)N[C@@H](CCC(=O)O)C(=O)N[C@@H](CCCNC(=N)N)C(=O)N[C@@H](CC(N)=O)C(=O)N[C@@H](CCCCN)C(=O)NCC(=O)N[C@@H](CCC(N)=O)C(=O)O)[C@@H](C)O", "note": "[motilin]", "values": [{"measurement": "motilin activity after oxidation of Met to the sulfoxide form", "value": "decreased motilin activity"}]}]}
